Like-named read-outs stand apart in the source and are kept apart here.
Columns and labels:
[1] = tested on: Aβ40 in conditioned medium of cells stably expressing Amyloid Precursor Protein (APP); assay: In vitro BACE cell-based assay (HEK cell assay, Aβ40 sandwich ELISA); conditions: Homo sapiens, HEK293; average IC50; read-out: BACE1 cell assay IC50
In short: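 IC50 was derived from percent-of-control Aβ40 against concentration, with Aβ40 quantified by time-resolved fluorescence ELISA (pAb40/6E10-biotin, 4 °C incubations). Supernatants were sampled after 24 h of compound exposure (10 points, starting 100 or 10 μM, 0.1% DMSO) of cells stably expressing APP.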

Abeta 40 = assay: In vivo inhibition of beta-secretase: percent Abeta 40 reduction in CSF and brain; set-up: species or system rat; conditions: after 4 hrs; for inhibition in vivo at 10 mg/kg: 10 mpk
From the text: In Vivo Inhibition of Beta-Secretase
Several animal models, including mouse, rat, dog, and monkey, may be used to screen for inhibition of beta-secretase activity in vivo following administration of a test compound sample. Animals used in this invention can be wild type, transgenic, or gene knockout animals. For example, the Tg2576 mouse model, prepared and conducted as described in Hsiao et al., 1996, Science 274, 99-102, and other non-transgenic or gene knockout animals are useful to analyze in vivo inhibition of Amyloid beta peptide (Abeta) production in the presence of inhibitory test compounds. Generally, 2 to 18 month old Tg2576 mice, gene knockout mice or non-transgenic animals are administered test compounds formulated in vehicles, such as cyclodextran, phosphate buffers, hydroxypropyl methylcellulose or other suitable vehicles. One to twenty-four hours following the administration of compound, animals are sacrificed, and brains as well as cerebrospinal fluid (CSF) and plasma are removed for analysis of A-beta levels and drug or test compound concentrations (Dovey et al., 2001, Journal of Neurochemistry, 76, 173-181) Beginning at time 0, animals are administered by oral gavage, or other means of delivery such as intravenous injection, an inhibitory test compound of up to 100 mg/kg in a standard, conventional formulation, such as 2% hydroxypropyl methylcellulose, 1% Tween80. A separate group of animals receive 2% hydroxypropyl methylcellulose, 1% Tween80 alone, containing no test compound, and serve as a vehicle-control group. At the end of the test period, animals are sacrificed and brain tissues, plasma or cerebrospinal fluid are collected. Brains are either homogenized in 10 volumes (w/v) of 0.2% diethylamine (DEA) in 50 mM NaCl (Best et al., 2005, Journal of Pharmacology and Experimental Therapeutics, 313, 902-908), or in 10 volumes of 0.5% TritonX-100 in Tris-buffered saline (pH at about 7.6). Homogenates are centrifuged at 355,000 g, 4° C. for 30 minutes. CSF or brain supernatants are then analyzed for the presence of A-beta peptide by specific sandwich ELISA assays based on ECL (Electrochemiluminescence) technology. For example, rat Abeta40 is measured using biotinylated-4G8 (Signet) as a capture antibody and Fab40 (an in-house antibody specific to the C-terminal of Abeta40) as a detection antibody. For example, 4 hours after administration of 30 mg/kg oral dose of the test compound in 2% hydroxypropyl methylcellulose, 1% Tween80 (pH2.2) to 200 g male Sprague Dawley rats, amyloid beta peptide levels are measured for reduction by X % and Y % in cerebrospinal fluid and brain, respectively, when compared to the levels measured in the vehicle-treated or control […].
Actual vehicles used: Oral: 2% HPMC, 1% Tween80, pH 2.2
• IV: 5% EtOH, 45% Propylene glycol in 5% Dextrose
The compounds of the invention may be shown to reduce the formation and/or deposition of amyloid beta peptide in the cerebrospinal fluid (CSF) as well as in the brain of a mouse or rat at either 3 mpk, 10 mpk or 30 mpk (mpk=mg compound per kg weight of the animal) dosing concentrations after 4 hrs.

[2] = Abeta 40, rat CSF, read-out: % reduction of rat CSF levels at 10 pmk
[3] = Abeta 40, rat brain, read-out: % reduction of rat brain levels at 10 mpk

In the case of `C[C@]1(c2cc(Nc3ncnc4cc(C#N)cnc34)ccc2F)N=C(N)[C@@]2(CF)CC[C@@H]1S2(=O)=O` [Example 40, 4-((3-((1S,2R,5R)-4-amino-5-(fluoromethyl)-2-methyl-8,8-dioxido-8-thia-3-azabicyclo[3.2.1]oct-3-en-2-yl)-4-fluorophenyl)amino)pyrido[3,2-d]pyrimidine-7-carbonitrile], the IC50 [1] is reported as 35 nM, the inhibition in vivo at 10 mg/kg (Abeta 40; [2]) is reported as 59% and the inhibition in vivo at 10 mg/kg (Abeta 40; [3]) is reported as 24%.

Work on `COc1cnc2c(Nc3ccc(F)c([C@@]4(C)N=C(N)[C@@]5(CF)CC[C@@H]4S5(=O)=O)c3)nccc2n1` [Example 41, N-(3-((1S,2R,5R)-4-amino-5-(fluoromethyl)-2-methyl-8,8-dioxido-8-thia-3-azabicyclo[3.2.1]oct-3-en-2-yl)-4-fluorophenyl)-2-methoxypyrido[3,4-b]pyrazin-5-amine] yielded an IC50 [1] of 15 nM, an inhibition in vivo at 10 mg/kg (Abeta 40; [2]) of 76% and an inhibition in vivo at 10 mg/kg (Abeta 40; [3]) of 62%.

With `COc1cnc(C(=O)Nc2ccc(F)c([C@@]3(C)N=C(N)[C@@]4(CF)CC[C@@H]3S4(=O)=O)c2)c(C)c1` [Example 42, N-(3-((1S,2R,5R)-4-amino-5-(fluoromethyl)-2-methyl-8,8-dioxido-8-thia-3-azabicyclo[3.2.1]oct-3-en-2-yl)-4-fluorophenyl)-5-methoxy-3-methyl-2-pyridinecarboxamide] the IC50 [1] was 30 nM, the “% reduction of rat CSF levels (3 mpk)” value (Abeta 40; Abeta 40, rat CSF) was 21 (3 mpk) % and the “% reduction of rat brain levels (3 mpk)” value (Abeta 40; Abeta 40, rat brain) was 0 (3 mpk) %.

Work on `C#CCOc1ccc(C(=O)Nc2ccc(F)c([C@@]3(C)N=C(N)[C@@]4(CF)CC[C@@H]3S4(=O)=O)c2)nc1` [Example 52, N-(3-((1S,2R,5R)-4-amino-5-(fluoromethyl)-2-methyl-8,8-dioxido-8-thia-3-azabicyclo[3.2.1]oct-3-en-2-yl)-4-fluorophenyl)-5-(2-propyn-1-yloxy)-2-pyridinecarboxamide] yielded an IC50 [1] of 4 nM, an inhibition in vivo at 10 mg/kg (Abeta 40; [2]) of 67% and an inhibition in vivo at 10 mg/kg (Abeta 40; [3]) of 62%.

For `COc1cnc2c(Nc3ccc(F)c([C@@]4(C)N=C(N)[C@@]5(CF)CC[C@@H]4S5(=O)=O)c3)nccc2c1` [Example 56, N-(3-((1S,2R,5R)-4-amino-5-(fluoromethyl)-2-methyl-8,8-dioxido-8-thia-3-azabicyclo[3.2.1]oct-3-en-2-yl)-4-fluorophenyl)-3-methoxy-1,7-naphthyridin-8-amine], the IC50 [1] was 16.7 nM and the inhibition in vivo at 10 mg/kg (Abeta 40; [2]) was 69%.

Work on `C#CCOc1cnc(C(=O)Nc2ccc(F)c([C@@]3(C)N=C(N)[C@@]4(CF)CC[C@@H]3S4(=O)=O)c2)c(C)n1` [Example 59, N-(3-((1S,2R,5R)-4-amino-5-(fluoromethyl)-2-methyl-8,8-dioxido-8-thia-3-azabicyclo[3.2.1]oct-3-en-2-yl)-4-fluorophenyl)-3-methyl-5-(2-propyn-1-yloxy)-2-pyrazinecarboxamide] yielded an IC50 [1] of 1 nM, an inhibition in vivo at 10 mg/kg (Abeta 40; [2]) of 80% and an inhibition in vivo at 10 mg/kg (Abeta 40; [3]) of 76%.

`COc1cnc(C(=O)Nc2ccc(F)c([C@@]3(C)N=C(N)[C@@]4(C)CC[C@@H]3S4(=O)=O)c2)cn1` [Example 61, N-(3-((1S,2R,5R)-4-amino-2,5-dimethyl-8,8-dioxido-8-thia-3-azabicyclo[3.2.1]oct-3-en-2-yl)-4-fluorophenyl)-5-methoxy-2-pyrazinecarboxamide] gave an IC50 [1] of 2 nM, an inhibition in vivo at 10 mg/kg (Abeta 40; [2]) of 80% and an inhibition in vivo at 10 mg/kg (Abeta 40; [3]) of 79%.

For `COc1cnc(C(=O)Nc2ccc(F)c([C@@]3(C)N=C(N)[C@@]4(CF)CC[C@@H]3S4(=O)=O)c2)c(C)n1` [Example 76, N-(3-((1S,2R,5R)-4-amino-5-(fluoromethyl)-2-methyl-8,8-dioxido-8-thia-3-azabicyclo[3.2.1]oct-3-en-2-yl)-4-fluorophenyl)-5-methoxy-3-methyl-2-pyrazinecarboxamide], the IC50 [1] was 8 nM, the inhibition in vivo at 10 mg/kg (Abeta 40; [2]) was 76% and the inhibition in vivo at 10 mg/kg (Abeta 40; [3]) was 66%.

Work on `C[C@]1(c2cc(NC(=O)c3ccc(Cl)cn3)ccc2F)N=C(N)[C@@]2(CF)CC[C@@H]1S2(=O)=O` [Example 77, N-(3-((1S,2R,5R)-4-amino-5-(fluoromethyl)-2-methyl-8,8-dioxido-8-thia-3-azabicyclo[3.2.1]oct-3-en-2-yl)-4-fluorophenyl)-5-chloro-2-pyridinecarboxamide] yielded an IC50 [1] of 3 nM, an inhibition in vivo at 10 mg/kg (Abeta 40; [2]) of 77% and an inhibition in vivo at 10 mg/kg (Abeta 40; [3]) of 67%.

`COc1cnc2c(Nc3ccc(F)c([C@@]4(C)N=C(N)[C@@]5(C)CC[C@@H]4S5(=O)=O)c3)ncc(F)c2c1` [Example 78, N-(3-((1S,2R,5R)-4-amino-2,5-dimethyl-8,8-dioxido-8-thia-3-azabicyclo[3.2.1]oct-3-en-2-yl)-4-fluorophenyl)-5-fluoro-3-methoxy-1,7-naphthyridin-8-amine] gave an IC50 [1] of 12 nM, an inhibition in vivo at 10 mg/kg (Abeta 40; [2]) of 52% and an inhibition in vivo at 10 mg/kg (Abeta 40; [3]) of 46%.

`COc1cnc2c(Nc3ccc(F)c([C@@]4(C)N=C(N)[C@@]5(C)CC[C@@H]4S5(=O)=O)c3)nccc2n1` [Example 80, N-(3-((1S,2R,5R)-4-amino-2,5-dimethyl-8,8-dioxido-8-thia-3-azabicyclo[3.2.1]oct-3-en-2-yl)-4-fluorophenyl)-2-methoxypyrido[3,4-b]pyrazin-5-amine] was tested, and the IC50 [1] was 6 nM, the inhibition in vivo at 10 mg/kg (Abeta 40; [2]) was 72% and the inhibition in vivo at 10 mg/kg (Abeta 40; [3]) was 63%.

Compound `CC#CCOc1cnc(C(=O)Nc2ccc(F)c([C@@]3(C)N=C(N)[C@@]4(C)CC[C@@H]3S4(=O)=O)c2)cn1` [Example 82, N-(3-((1S,2R,5R)-4-amino-2,5-dimethyl-8,8-dioxido-8-thia-3-azabicyclo[3.2.1]oct-3-en-2-yl)-4-fluorophenyl)-5-(2-butyn-1-yloxy)-2-pyrazinecarboxamide] has an IC50 [1] of 0.07 nM, an inhibition in vivo at 10 mg/kg (Abeta 40; [2]) of 71% and an inhibition in vivo at 10 mg/kg (Abeta 40; [3]) of 56%.

`Cc1cc(Cl)cnc1C(=O)Nc1ccc(F)c([C@@]2(C)N=C(N)[C@@]3(CF)CC[C@@H]2S3(=O)=O)c1` [Example 88, N-(3-((1S,2R,5R)-4-amino-5-(fluoromethyl)-2-methyl-8,8-dioxido-8-thia-3-azabicyclo[3.2.1]oct-3-en-2-yl)-4-fluorophenyl)-5-chloro-3-methyl-2-pyridinecarboxamide] showed an IC50 [1] of 5 nM, an inhibition in vivo at 10 mg/kg (Abeta 40; [2]) of 77% and an inhibition in vivo at 10 mg/kg (Abeta 40; [3]) of 70%.

In the case of `Cc1cc(C#N)cnc1C(=O)Nc1ccc(F)c([C@@]2(C)N=C(N)[C@@]3(CF)CC[C@@H]2S3(=O)=O)c1` [Example 96, N-(3-((1S,2R,5R)-4-amino-5-(fluoromethyl)-2-methyl-8,8-dioxido-8-thia-3-azabicyclo[3.2.1]oct-3-en-2-yl)-4-fluorophenyl)-5-cyano-3-methyl-2-pyridinecarboxamide], the IC50 [1] is reported as 2 nM, the “% reduction of rat CSF levels (3 mpk)” value (Abeta 40; Abeta 40, rat CSF) is reported as 60 (3 mpk) % and the “% reduction of rat brain levels (3 mpk)” value (Abeta 40; Abeta 40, rat brain) is reported as 39 (3 mpk) %.

Compound `COc1cnc2c(Nc3ccc(F)c([C@@]4(C)N=C(N)[C@@]5(CF)CC[C@@H]4S5(=O)=O)c3)ncnc2c1` [Example 97, N-(3-((1S,2R,5R)-4-amino-5-(fluoromethyl)-2-methyl-8,8-dioxido-8-thia-3-azabicyclo[3.2.1]oct-3-en-2-yl)-4-fluorophenyl)-7-methoxypyrido[3,2-d]pyrimidin-4-amine] has an IC50 [1] of 7 nM, an inhibition in vivo at 10 mg/kg (Abeta 40; [2]) of 75% and an inhibition in vivo at 10 mg/kg (Abeta 40; [3]) of 76%.

`C[C@]1(c2cc(Nc3nccc4cc(C#N)cnc34)ccc2F)N=C(N)[C@@]2(CF)CC[C@@H]1S2(=O)=O` [Example 100, 8-((3-((1S,2R,5R)-4-amino-5-(fluoromethyl)-2-methyl-8,8-dioxido-8-thia-3-azabicyclo[3.2.1]oct-3-en-2-yl)-4-fluorophenyl)amino)-1,7-naphthyridine-3-carbonitrile] showed an IC50 [1] of 4 nM, an inhibition in vivo at 10 mg/kg (Abeta 40; [2]) of 67% and an inhibition in vivo at 10 mg/kg (Abeta 40; [3]) of 59%.

Reference: US9096615B2, “Bridged bicyclic amino thiazine dioxide compounds as inhibitors of beta-secretase and methods of use thereof” (AMGEN INC., priority 2013, dated 2015)
